The target in series [1] is T1, TcdB-GTD (Clostridioides difficile, UniProt P18177).
T1 construct: C-terminal His-6 tagged TcdB-GTD (amino acids 1-546); His6 (C); made in house; host or cells: Escherichia coli One Shot BL21 Star (DE3)
Description: biochemical. It is filed as biochemical, Clostridium difficile.

Series [2] deals with T1, TcdB-GTD. Description: biochemical. Also on record: species or system Clostridium difficile.
The test system of another series is C. sordelli lethal toxin. As to conditions: cited from earlier work.
Series [3] deals with TcdB-GTD. As to conditions: cited from earlier work.
Series [4] concerns the target T1, TcdB-GTD. It is filed as binding, Clostridium difficile.
Series [5] deals with TcdA-induced apoptosis of HT-29 cells. It is filed as cell-based.
For series [6], the system named is TcdB-induced cell rounding of IMR90 cells. It is filed as cell-based, human.
The subject of series [7] is Rac1 glucosylation by TcdB in IMR90 cells. Description: Western blot analysis of Rac1 glucosylation in IMR90 cells, TcdB. The format is cell-based, human. As to conditions: 12.5–100 µM iminosugar, 0.1 nM TcdB, 6 h. How it is done: (§1) IMR90 cells were grown in EMEM with 10% FBS in 24-well plates inoculated at 50,000 cells/well. […] Next, TcdA (1 nM final) or TcdB (0.1 nM final) was added to each well and cells were incubated at 37 °C, 5% CO2 for 6 h. The cells were lysed with mammalian cell lysis buffer (Abcam) according to manufacturer’s instructions. Cell lysates (2 µg) were heated at 95 °C in XT-loading dye (Bio-rad) before being loaded on an SDS polyacrylamide gel. Following electrophoresis, samples were transferred to PVDF membrane using an iblot2 device (ThermoFisher), blocked with 1% milk in PBS 0.1% Tween 20 for 1 h at room temperature and probed with a 1/4000 dilution of anti-Rac1 (Mab102, Thermo Fisher) and 1/8000 of anti-GAPDH antibody (Abcam) for 1 h at room temperature. Following incubation with the primary antibody, the membrane was washed 3 times with PBS with 0.1% Tween20 and incubated with a 1/40,000 dilution of secondary antibody for 1 h. Following incubation with the secondary antibody, the membrane was washed 3 times in PBS 0.1% tween 20 before a final wash in PBS. […]

Series [8] concerns TcdA-induced cell rounding of Vero cells. Description: cells. The format is cell-based. The following applies: Chlorocebus sabaeus, 2 h, read-out: Calculated IC50 cell rounding.
Another series addresses T2, TcdA-GTD (Clostridioides difficile, UniProt P16154).
T2 construct: TcdA-GTD (amino acids 1–542); His6 (C); made in house; host or cells: E. coli One shot BL21 Star (DE3)
Description: biochemical. The format is biochemical, Clostridium difficile.

For the next series, the system named is cell lines. Description: Cell toxicity of the iminosugars in the cell lines used. The format is cell-based. As to conditions: high treatment concentrations.
The next series relates to Gaucher disease patients. Also on record: method as in NCTs: 00433147; 00446550; 00813865; 00875160. The following applies: ref NCTs: 00433147, 00446550, 00813865, 00875160, cited from earlier work.
Series [9] concerns TcdA-induced cell rounding of IMR90 cells. The format is cell-based, human.
Series [10] has as its target T3, TcdB-GTD in the presence of UDP (Clostridioides difficile, UniProt P18177).
T3 construct: C-terminal His-6 tagged TcdB-GTD (amino acids 1-546); His6 (C); made in house; host or cells: Escherichia coli One Shot BL21 Star (DE3)
Description: biochemical. It is filed as binding, Clostridium difficile. As to conditions: for Kd: ITC, 1 mM UDP.

Series [11] concerns Rac1 glucosylation by TcdA in IMR90 cells. Description: Western blot analysis of Rac1 glucosylation in IMR90 cells, TcdA. It is filed as cell-based, human. As to conditions: 12.5–100 µM iminosugar, 1 nM TcdA, 6 h. How it is done: as §1
The subject of series [12] is TcdB-induced cell rounding of Vero cells. Description: cells. The following applies: Chlorocebus sabaeus, 1.5 h, read-out: Calculated IC50 cell rounding. It is filed as cell-based.
Details of series [13]: method as in Khanna et al, FEBS journal, 2010, vol 277, p 1618. As to conditions: after administration; ref Khanna et al, FEBS journal, 2010, vol 277, p 1618; cited from earlier work.
The mark [14] stands for this setting: Ki TcdB-GTD glucosyltransferase activity.
[15] abbreviates: Ki TcdB-GTD glucohydrolase activity.
Where [16] appears, read: Ki TcdB-GTD glucosyltransferase activity, fixed concentration of UDP at 2 x Ki UDP.
The mark [17] stands for this setting: Ki TcdA-GTD glucosyltransferase activity.
Where [18] appears, read: Ki TcdA-GTD glucosyltransferase activity, fixed concentration of UDP at 2 x Ki UDP.

Where “and” joins values, the source holds several entries; their conditions need not be identical. Equal values may be shown once. Where a name gives a salt, the structure may show the parent alone. Read-outs that look alike come from different tables or passages of the source.

T2 sequence (P16154 1-542): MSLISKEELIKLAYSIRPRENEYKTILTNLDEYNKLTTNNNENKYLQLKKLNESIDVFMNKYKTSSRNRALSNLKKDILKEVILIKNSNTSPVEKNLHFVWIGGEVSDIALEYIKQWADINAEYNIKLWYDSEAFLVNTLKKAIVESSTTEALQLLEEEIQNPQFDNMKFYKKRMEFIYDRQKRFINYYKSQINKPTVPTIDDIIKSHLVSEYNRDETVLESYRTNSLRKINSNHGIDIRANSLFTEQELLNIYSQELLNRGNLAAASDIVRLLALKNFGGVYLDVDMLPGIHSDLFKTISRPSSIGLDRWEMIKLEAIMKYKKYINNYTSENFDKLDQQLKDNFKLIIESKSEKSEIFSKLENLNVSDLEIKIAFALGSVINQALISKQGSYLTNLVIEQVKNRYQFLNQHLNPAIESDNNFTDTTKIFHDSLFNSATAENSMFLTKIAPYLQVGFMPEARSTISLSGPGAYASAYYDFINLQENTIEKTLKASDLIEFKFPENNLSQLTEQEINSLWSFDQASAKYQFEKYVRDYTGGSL
T1 sequence (P18177 1-546 limits assumed): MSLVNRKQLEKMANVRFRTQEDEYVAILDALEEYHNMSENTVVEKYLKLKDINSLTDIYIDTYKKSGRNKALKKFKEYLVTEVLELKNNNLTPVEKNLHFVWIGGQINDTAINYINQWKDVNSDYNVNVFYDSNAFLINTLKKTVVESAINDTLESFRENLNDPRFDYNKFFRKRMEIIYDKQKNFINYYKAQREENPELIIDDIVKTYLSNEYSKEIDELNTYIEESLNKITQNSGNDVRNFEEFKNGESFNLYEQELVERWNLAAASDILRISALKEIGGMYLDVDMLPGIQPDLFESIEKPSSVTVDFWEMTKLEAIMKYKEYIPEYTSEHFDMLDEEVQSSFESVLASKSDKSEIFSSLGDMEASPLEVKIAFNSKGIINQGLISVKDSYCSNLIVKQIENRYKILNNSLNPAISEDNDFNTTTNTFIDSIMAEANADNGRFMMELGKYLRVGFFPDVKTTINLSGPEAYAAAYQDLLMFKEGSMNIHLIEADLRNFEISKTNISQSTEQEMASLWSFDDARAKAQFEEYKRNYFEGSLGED
T3 sequence (P18177 1-546 limits assumed): as above

`OC[C@@H]1[C@@H](O)[C@H](O)[C@H]2[C@@H](O)CCN21` [Australine HCl, australine hydrochloride]: on TcdB-GTD [1] (read-out: % enzyme activity), the remaining activity at 500 µM came to 73.4%, the remaining activity at 1000 µM came to 45.1%, the remaining activity at 2000 µM was 21.8% and the remaining activity at 4000 µM worked out at 0%. In addition, on TcdB-GTD [1] (read-out: % enzyme activity), the remaining activity at […] worked out at 100%. The Ki on TcdB-GTD [1] (read-out: Ki TcdB-GTD glucosyltransferase activity) was 1570 ± 430 µM. On TcdB-GTD [2] (read-out: Ki TcdB-GTD GH activity, no inhibition), the Ki was greater than 10000 µM. The Ki at TcdB-GTD [2] (read-out: Ki TcdB-GTD glucohydrolase activity) is greater than 10000 µM.

`O[C@H]1[C@H](O)[C@@H](O)CN2CC[C@H](O)[C@H]12` [Castanospermine]: the inhibition constant Ki at TcdB-GTD [1] (setting [14]) was 680 ± 20 µM; on TcdB-GTD [2] (setting [15]), 3400 ± 200 µM. In addition, the remaining activity at 1000 µM on TcdB-GTD [1] (read-out: % enzyme activity) was determined as 25.9%. The remaining activity at 4000 µM at TcdB-GTD [1] (read-out: % enzyme activity) stood at 0%. Also, the IC50 in the series with C. sordelli lethal toxin is roughly 100 µM; with TcdB-GTD [3], roughly 400 µM.

Turning to `OC[C@H]1NC[C@H](O)[C@@H](O)[C@@H]1O` [Deoxynojirimycin], the “Inhibition of TcdB-GTD GT activity” value at TcdB-GTD [1] is given as “did not inhibit”. Moreover, the Ki at TcdB-GTD [1] (setting [14]) and at TcdB-GTD [2] (setting [15]) was greater than 10000 µM throughout. The “Inhibition of TcdB-GTD GH activity” value on TcdB-GTD [2] was “did not inhibit”.

Turning to `O=C1O[C@H](CO)[C@@H](O)[C@H](O)[C@H]1O` [Gluconolactone, D-gluconon-1,5-lactone], the figures for the Ki at TcdB-GTD [1] (setting [14]) and at TcdB-GTD [2] (setting [15]) were 440 µM and 414 µM, respectively.

On to `OC[C@H]1OC(O)[C@H](O)[C@@H](O)[C@@H]1O` (stereo partly shown) [Glucose], for which the Inhibition entry on TcdB-GTD [1] is listed as “no significant inhibition”. In the series with TcdB-GTD [3] (ref 42 (numbering of the author response)), the “Inhibition of TcdB-GTD” value is on record as “no significant inhibition”.

Regarding `OC[C@H]1CNC[C@@H](O)[C@@H]1O` [Isofagomine], the “Binding to TcdB-GTD alone (ITC)” value at TcdB-GTD [4] is listed as “no significant binding”. Besides, the “Effect on TcdA-induced apoptosis (Annexin V)” value in series [5] is recorded as “prevented apoptosis”. Besides, in [6], the “Effect on toxin-induced cell rounding” value is given as “prevented”. For the same compound, on TcdB-GTD [1], the “Mode of inhibition versus UDP-glucose” value was “uncompetitive” and the “fold improvement of inhibitory affinity in the presence of UDP” value is 2.4 fold. In addition, the Ki at TcdB-GTD [1] (setting [14]) amounted to 1.4 ± 0.1 µM. At TcdB-GTD [1] (setting [16]), the Ki is 0.29 ± 0.06 µM. At TcdB-GTD [1] (read-out: % enzyme activity), the remaining activity at 0.015 µM was determined as 99.7%, the remaining activity at 0.061 µM was found to be 100%, the remaining activity at 0.24 µM amounted to 88.2% and the remaining activity at 0.48 µM was determined as 95.9%. Also, at TcdB-GTD [1] (read-out: % enzyme activity), the remaining activity at 1.95 µM amounted to 72%, the remaining activity at 3.9 µM came to 37.8%, the remaining activity at 3.906 µM was 15.8% and the remaining activity at 7.81 µM worked out at 19.7%. Moreover, at TcdB-GTD [1] (read-out: % enzyme activity), the remaining activity at 15.62 µM came to 8.07%; the remaining activity at […] is 87.8% and 80.5% and 43.4%. For the same compound, the “Unglucosylated Rac1 (Mab102) versus total Rac1” value in series [7] is recorded as “dose-dependent reappearance of unglucosylated Rac1”. In addition, the IC50 in [8] was 5.5 ± 1.5 µM. In addition, on TcdA-GTD, the “Mode of inhibition versus UDP-glucose” value is on record as “uncompetitive inhibition”, the “fold improvement of inhibition constant for TcdA-GTD relative to TcdB-GTD” value is listed as 5.8 fold and the “fold improvement of inhibition constant in the presence of UDP” value is listed as 15 fold. The compound also returned a Ki on TcdA-GTD (setting [17]) of 0.24 ± 0.01 µM. This compound came in with a Ki on TcdA-GTD (setting [18]) of 0.016 ± 0.002 µM. In the series on cell lines, the Cell toxicity result is “no cell toxicity”. For the same compound, the “Tolerability of oral doses” value in the series with Gaucher disease patients (225 mg/day oral, Gaucher patients) is “well tolerated”. Besides, the “Reduction in Gaucher disease symptoms” value in the series on Gaucher disease patients (majority of patients) is listed as “did not show a significant reduction”. Further, the “Effect on toxin-induced cell rounding” value in series [9] was “prevented”. In series [10], the ΔH was -10.3 ± 0.1 kcal/mol; the “−TΔS” value amounted to 0.5 ± 0.2 kcal/mol; the Kd was 0.067 µM and 0.0669 µM. Moreover, the “Unglucosylated Rac1 (Mab102) versus total Rac1” value in [11] is “dose-dependent reappearance of unglucosylated Rac1”. Affinity at TcdB-GTD [2] (setting [15]) was put at a Ki of 4.8 ± 0.2 µM. The IC50 in series [12] is 8.3 ± 3.6 µM. In addition, in [13], the “Time to maximal levels in plasma, liver, spleen and brain” value is no more than 1 h.

For `OC[C@H]1CNC(O)[C@@H](O)[C@@H]1O` (stereo partly shown) [Noeuromycin], the “Binding to TcdB-GTD alone (ITC)” value on TcdB-GTD [4] is “no significant binding”. Moreover, in series [5], the “Effect on TcdA-induced apoptosis (Annexin V)” value is listed as “prevented apoptosis”. Further, the “Effect on toxin-induced cell rounding” value in series [6] and in series [9] was “prevented” each time. Moreover, the “Mode of inhibition versus UDP-glucose” value at TcdB-GTD [1] is on record as “uncompetitive”. Also, at TcdB-GTD [1], the “fold improvement of inhibitory affinity in the presence of UDP” value is reported as 4.8 fold. For the same compound, the “fold less potent than isofagomine” value on TcdB-GTD [1] is on record as 7.6 fold. Further, the Ki stood at 10.6 ± 1 µM at TcdB-GTD [1] (setting [14]); 4.4 ± 0.1 µM on TcdB-GTD [1] (setting [16]); 0.21 ± 0.05 µM on TcdA-GTD (Ki TcdA-GTD GT activity, fixed concentration of UDP at 2 x Ki UDP); 4.7 ± 0.2 µM on TcdA-GTD (setting [17]); 0.214 ± 0.055 µM at TcdA-GTD (setting [18]); 12 ± 1.6 µM at TcdB-GTD [2] (setting [15]). The “Unglucosylated Rac1 (Mab102) versus total Rac1” value in series [7] and in series [11] was “dose-dependent reappearance of unglucosylated Rac1” each time. Also, the results for the IC50 in series [8] and in series [12] were 9.6 ± 3.3 µM and 13.6 ± 5.6 µM, respectively. For the same compound, the “fold improvement of inhibition constant for TcdA-GTD relative to TcdB-GTD” value at TcdA-GTD turned out to be 2.3 fold. Besides, the “fold improvement of inhibition constant in the presence of UDP” value at TcdA-GTD amounted to 23 fold. Further, in the series on cell lines, the Cell toxicity result was “no cell toxicity”. Also, in [10], the ΔH was -5.2 ± 0.1 kcal/mol. The “−TΔS” value in series [10] amounted to 4.2 ± 0.3 kcal/mol. Also, the Kd in series [10] was determined as 0.18 µM.

Turning to `O[C@H]1[C@H]2[C@H](O)CCCN2C[C@H]1O` [Swainsonine], the inhibitory constant (Ki) on TcdB-GTD [1] (Ki TcdB-GTD GT activity), at TcdB-GTD [1] (setting [14]), on TcdB-GTD [2] (Ki TcdB-GTD GH activity) and on TcdB-GTD [2] (setting [15]) was greater than 10000 µM throughout.

`O.O=c1ccn([C@@H]2O[C@H](COP(=O)([O-])OP(=O)([O-])O)[C@@H](O)[C@H]2O)c(=O)[nH]1.[Na+].[Na+]` [UDP, Uridine 5’diphosphate disodium salt hydrate]: at TcdB-GTD [4], the ΔH is -14.3 ± 3.9 kcal/mol and the “−TΔS” value was 8.2 ± 3.8 kcal/mol. Also, the “Mode of inhibition versus UDP-glucose” value on TcdB-GTD [1] is listed as “competitive inhibition”. Besides, at TcdB-GTD [1] (read-out: % enzyme activity), the remaining activity at 4.84 µM came out at 86.1%, the remaining activity at 19.37 µM was found to be 65.3%, the remaining activity at 78 µM came to 19.7% and the remaining activity at […] is 99.1%.

The record behind these values is PMC8560925, “Inhibition of Clostridium difficile TcdA and TcdB toxins with transition state analogues” (Nature Communications, 2021).
